We go through 23 compounds from PubChem BioAssay (NCI).

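Cultured in 96-well plates, cells were exposed to test compound for 48 hours across five concentrations. The concentration for 50% growth inhibition is given as GI50. TGI: total growth inhibition.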 A value given as a limit tells only on which side of the number the result lay.

Some test systems named below: A549 NSCLC; DU-145 prostate; EKVX NSCLC; M14 melanoma; NCI-H460 lung; OVCAR-5 ovarian; OVCAR-8 ovarian; PC-3 prostate; UACC-257 melanoma.
Common to all, as to assay: NCI-60 cell line screen, 48 h

Turning to `O=[N+]([O-])c1nccn1CCCNCCCn1ccnc1[N+](=O)[O-]`, the TGI in the assay with A549 NSCLC, in the assay with DU-145 prostate, in the assay with EKVX NSCLC, with M14 melanoma, in the assay with NCI-H460 lung and in the assay on OVCAR-5 ovarian was more than 100 µM each time. The TGI in the assay with OVCAR-8 ovarian, in the assay on PC-3 prostate and in the assay on UACC-257 melanoma was more than 100 µM each time.
`COc1ccc(CNC(=O)[C@H](Cc2ccc(O)cn2)NC(C)=O)cc1`: the TGI in the assay with A549 NSCLC, with DU-145 prostate, in the assay with EKVX NSCLC, in the assay with M14 melanoma, in the assay with NCI-H460 lung and in the assay on OVCAR-5 ovarian was more than 100 µM in each case. Besides, the TGI in the assay with PC-3 prostate and with UACC-257 melanoma was more than 100 µM throughout.
In the case of `O=C(O)c1ccc(Nc2nc3cc(C(F)(F)F)ccc3nc2-c2ccccc2)cc1`, the TGI with A549 NSCLC was 40.3 µM; in the assay on DU-145 prostate, 95.5 µM; with EKVX NSCLC, 92 µM; with NCI-H460 lung, 75.7 µM; in the assay with OVCAR-5 ovarian, 97.7 µM; in the assay on OVCAR-8 ovarian, more than 100 µM. For the same compound, the TGI was 40.6 µM in the assay on PC-3 prostate and more than 100 µM in the assay on UACC-257 melanoma.
As to `CC(=O)O[C@@H]1O[Si](C(C)(C)C)(C(C)(C)C)[C@H](C)[C@H]1C`, the TGI with A549 NSCLC, in the assay with EKVX NSCLC, with M14 melanoma, in the assay on OVCAR-5 ovarian, in the assay on OVCAR-8 ovarian and with PC-3 prostate was more than 100 µM throughout. Besides, the TGI in the assay on UACC-257 melanoma is more than 100 µM.
On to `CC1(C)CN=C(Nc2ccc(F)c(F)c2)S1`, for which the TGI in the assay on A549 NSCLC, in the assay on DU-145 prostate, in the assay with EKVX NSCLC, in the assay on M14 melanoma, in the assay on OVCAR-5 ovarian and in the assay on OVCAR-8 ovarian was more than 100 µM throughout. Also, the TGI with PC-3 prostate and with UACC-257 melanoma was more than 100 µM each time.
With `N#Cc1c(N)c(C#N)c2c(c1-c1ccc(Cl)cc1)COc1ccccc1-2`, the TGI in the assay on A549 NSCLC was 33.2 µM; in the assay on DU-145 prostate it was 68.6 µM; in the assay on EKVX NSCLC it was 28.5 µM; with M14 melanoma, more than 100 µM; with NCI-H460 lung it was more than 100 µM; in the assay with OVCAR-5 ovarian, more than 100 µM. Further, the TGI is 42.6 µM in the assay with PC-3 prostate and more than 100 µM in the assay on UACC-257 melanoma.
In the case of `OC(c1ccccc1)C(F)(F)c1nc2ccccc2o1` (stereo not given), the TGI in the assay with DU-145 prostate, in the assay with EKVX NSCLC, with M14 melanoma, in the assay on NCI-H460 lung, in the assay with OVCAR-8 ovarian and with PC-3 prostate was more than 100 µM throughout. The compound further yielded a TGI in the assay on UACC-257 melanoma of more than 100 µM.
Turning to `CC(=O)Oc1c2oc3cc(O)c(O)cc3c2c(OC(C)=O)c2oc3cc(O)c(O)cc3c12`, the TGI with A549 NSCLC was more than 100 µM; with EKVX NSCLC, 40.1 µM; with M14 melanoma, more than 100 µM; in the assay with NCI-H460 lung, 32.7 µM; with OVCAR-5 ovarian, 56.3 µM; in the assay with OVCAR-8 ovarian it was 50.2 µM. The values for the TGI with PC-3 prostate and with UACC-257 melanoma were 56.9 µM and 38.8 µM, respectively.
For `O=C(O)CCC(NC(=O)c1ccc(CNc2nc3ccccc3nc2C(=O)O)cc1)C(=O)O` (stereo not given), the TGI with A549 NSCLC, in the assay with DU-145 prostate, with EKVX NSCLC, in the assay on M14 melanoma, in the assay with OVCAR-5 ovarian and in the assay with OVCAR-8 ovarian was more than 100 µM in each case. Also, the TGI in the assay with PC-3 prostate and with UACC-257 melanoma was more than 100 µM each time.
With `O=C1NC(S(=O)(=O)O)=NNC12c1ccccc1-c1ccccc12`, the TGI in the assay on A549 NSCLC, with DU-145 prostate, in the assay on EKVX NSCLC, in the assay on M14 melanoma, in the assay with NCI-H460 lung and in the assay on OVCAR-8 ovarian was more than 10 µM in each case. Moreover, the TGI in the assay on PC-3 prostate and with UACC-257 melanoma was more than 10 µM each time.
With `COc1ccc(N2C(=O)/C(=C\c3cccc(Oc4ccccc4)c3)SC2c2ccccc2)cc1` (stereo not given), the TGI in the assay with A549 NSCLC, in the assay with DU-145 prostate, in the assay with EKVX NSCLC, in the assay with M14 melanoma, in the assay on NCI-H460 lung and in the assay on OVCAR-5 ovarian was more than 100 µM throughout. In addition, the TGI in the assay on OVCAR-8 ovarian and in the assay on UACC-257 melanoma was more than 100 µM in each case.
With `CN(C)C(=O)C1CCN(Cc2c[nH]c3ccccc23)CC1`, the TGI in the assay on A549 NSCLC, in the assay on DU-145 prostate, in the assay with EKVX NSCLC, with M14 melanoma, with OVCAR-5 ovarian and with OVCAR-8 ovarian was more than 100 µM in each case. The TGI with PC-3 prostate and in the assay on UACC-257 melanoma was more than 100 µM each time.
In the case of `CCOC(=O)N1[C@@H]2CCC[C@@H]2C(=O)[C@@H]2CCC[C@@H]21`, the TGI with A549 NSCLC, in the assay with DU-145 prostate, with M14 melanoma, in the assay with NCI-H460 lung, with OVCAR-5 ovarian and with OVCAR-8 ovarian was more than 100 µM each time. The TGI in the assay with PC-3 prostate and in the assay on UACC-257 melanoma was more than 100 µM throughout.
Turning to `Nc1c(N2CCCCC2)c(=O)nc2[nH]/c(=C\c3ccccc3)c(=O)n12`, the TGI in the assay on A549 NSCLC, in the assay with DU-145 prostate, with EKVX NSCLC, with M14 melanoma, in the assay with NCI-H460 lung and in the assay on OVCAR-5 ovarian was more than 100 µM throughout. Further, the TGI in the assay with OVCAR-8 ovarian and in the assay with UACC-257 melanoma was more than 100 µM throughout.
With `CCOC(=O)c1[nH]c2nc(SC)nc(Nc3ccccc3Cl)c2c1N`, the TGI is 44.8 µM in the assay with A549 NSCLC; 95.7 µM in the assay on DU-145 prostate; more than 100 µM in the assay on M14 melanoma; 41.1 µM in the assay on NCI-H460 lung; more than 100 µM in the assay on OVCAR-5 ovarian; 36.5 µM in the assay with OVCAR-8 ovarian. Further, the TGI with PC-3 prostate was 37.1 µM; in the assay with UACC-257 melanoma, more than 100 µM.
`Nc1ccccc1N=Nc1c(S(=O)(=O)O)cc2cc(S(=O)(=O)O)cc(O)c2c1O`: the TGI with A549 NSCLC, in the assay on DU-145 prostate, in the assay on EKVX NSCLC, in the assay on M14 melanoma, in the assay on OVCAR-5 ovarian and in the assay with OVCAR-8 ovarian was more than 100 µM each time. In addition, the TGI in the assay with PC-3 prostate and with UACC-257 melanoma was more than 100 µM in each case.
Turning to `Cn1c(-c2ccc(N=NNc3ccc(-c4n[nH]c(=S)n4C)cc3)cc2)n[nH]c1=S`, the TGI with A549 NSCLC is more than 100 µM; in the assay on DU-145 prostate, 30.6 µM; in the assay with EKVX NSCLC it was more than 100 µM; in the assay with M14 melanoma, more than 100 µM; with OVCAR-5 ovarian, more than 100 µM; with OVCAR-8 ovarian it was 23.4 µM. In addition, the TGI in the assay on PC-3 prostate and in the assay with UACC-257 melanoma was more than 100 µM throughout.
On to `N#Cc1c(-c2ccccc2)c(C#N)c(=O)n(C2OC(CO)C(O)C(O)C2O)c1S` (stereo not given), for which the TGI in the assay on A549 NSCLC, in the assay on DU-145 prostate, with M14 melanoma, in the assay with NCI-H460 lung, with OVCAR-5 ovarian and in the assay with OVCAR-8 ovarian was more than 100 µM each time. Further, the TGI in the assay with PC-3 prostate and with UACC-257 melanoma was more than 100 µM each time.
As for `Cc1ccc(C2CC(c3cccc(Nc4ccncc4)c3)=NN2c2ccccc2)cc1` (stereo not given), the GI50 in the assay with DU-145 prostate is 1.89 µM; with EKVX NSCLC, 1.69 µM; with NCI-H460 lung, 1.8 µM; with OVCAR-5 ovarian, 1.68 µM; with OVCAR-8 ovarian, 2.19 µM; in the assay with PC-3 prostate, 1.59 µM. Besides, the TGI is 3.6 µM in the assay on DU-145 prostate; 3.25 µM with EKVX NSCLC; 3.33 µM in the assay on NCI-H460 lung; 3.19 µM in the assay on OVCAR-5 ovarian; 4.85 µM with OVCAR-8 ovarian; 3.24 µM in the assay on PC-3 prostate.
With `O=C(O)Cn1c2c(c3c(O)cccc31)C(=O)c1ccccc1-2`, the GI50 was more than 100 µM in the assay with A549 NSCLC; 0.0519 µM in the assay on DU-145 prostate; 3.2 µM with EKVX NSCLC; more than 100 µM with M14 melanoma; more than 100 µM in the assay with NCI-H460 lung; more than 100 µM with OVCAR-5 ovarian. For the same compound, the GI50 with OVCAR-8 ovarian and in the assay with UACC-257 melanoma was more than 100 µM each time. For the same compound, the TGI in the assay with A549 NSCLC, in the assay with DU-145 prostate, in the assay with EKVX NSCLC, in the assay on M14 melanoma, in the assay with NCI-H460 lung and with OVCAR-5 ovarian was more than 100 µM each time. Moreover, the TGI in the assay on OVCAR-8 ovarian and in the assay with UACC-257 melanoma was more than 100 µM each time.
As for `C[N+](C)([O-])Cc1cc(-c2ccccc2)ccc1O`, the TGI with A549 NSCLC, in the assay with DU-145 prostate, in the assay on EKVX NSCLC, in the assay on M14 melanoma, in the assay with NCI-H460 lung and in the assay on OVCAR-5 ovarian was more than 100 µM each time. Moreover, the TGI in the assay with PC-3 prostate and in the assay with UACC-257 melanoma was more than 100 µM in each case.
Turning to `COc1ccc2c(c1)C(N)=C(Cc1ccncc1)C2=O`, the TGI in the assay on A549 NSCLC, in the assay on DU-145 prostate, in the assay with EKVX NSCLC, with M14 melanoma, with NCI-H460 lung and in the assay on OVCAR-8 ovarian was more than 100 µM each time. Moreover, the TGI in the assay on PC-3 prostate and in the assay with UACC-257 melanoma was more than 100 µM in each case.
In the case of `CN(C)c1ccc(C(=NN)c2ccc(N(C)C)cc2)cc1`, the TGI in the assay on A549 NSCLC was more than 100 µM; with DU-145 prostate, more than 35 µM; in the assay on EKVX NSCLC, more than 100 µM; with M14 melanoma it was more than 100 µM; with OVCAR-5 ovarian, more than 100 µM; with OVCAR-8 ovarian, more than 100 µM. In addition, the TGI in the assay with PC-3 prostate was more than 23.5 µM; with UACC-257 melanoma, 0.813 µM.
